Assay results published in patent US20080207745A1, “Orally-absorbed formulation for paromomycin” (priority 2007, published 2008).
Values joined by “and” are separate entries in the source; they are usually repeats but may differ in a detail not shown here. Equal values may be shown once. Where a name gives a salt, the structure may show the parent alone. Read-outs that look alike come from different tables or passages of the source.

Assays:
[1] = In vitro PAR transport across harvested intestinal segments, EasyMount Ussing System: duodenum; assay type: in vitro ADME; details: rat, 5 mg/ml (~25 mg) paromomycin in mucosal chamber, tissue area 0.5 sq cm
Experimental: (§1) HEPES buffer was used as the base mucosal and serosal fluid. […] First 5 ml of HEPES buffer was added to each of the two chambers (mucosal and serosal) and allowed to equilibrate for 20 min. […] Aliquots of sample solution were removed from the chamber on other side of the mounted intestinal segment periodically and replaced with an equal volume of fresh warm HEPES buffer.
(§2) These additives, either alone or in combinations, were dissolved in HEPES buffer on percent weight/weight basis of the HEPES medium. Owing to the expected variation in the in-vitro conditions and harvested rat intestinal segments, four replicates were used per experimental condition.
(§3) The apparent permeability coefficients (Papp) were calculated according to:
(§4) Papp=(dQ/dt)/C0×A, where dQ/dt is the linear appearance rate of mass in receiver compartment, C0 is the initial solute concentration in donor compartment, and A is the surface area.
(§5) The drug in post column eluant was derivatized with Dinitrofluorobenzene (DNFB) and monitored at 360 nm. The run time was 30 minutes.

[2] = In vitro PAR transport across harvested intestinal segments, EasyMount Ussing System: jejunum; assay type: in vitro ADME; details: rat; for Papp at 15 mg/ml: 15 mg/ml PAR
Experimental: HEPES buffer was used as the base mucosal and serosal fluid. […] First 5 ml of HEPES buffer was added to each of the two chambers (mucosal and serosal) and allowed to equilibrate for 20 min. […] Aliquots of sample solution were removed from the chamber on other side of the mounted intestinal segment periodically and replaced with an equal volume of fresh warm HEPES buffer. […] These additives, either alone or in combinations, were dissolved in HEPES buffer on percent weight/weight basis of the HEPES medium. Owing to the expected variation in the in-vitro conditions and harvested rat intestinal segments, four replicates were used per experimental condition. The apparent permeability coefficients (Papp) were calculated according to: Papp=(dQ/dt)/C0×A, where dQ/dt is the linear appearance rate of mass in receiver compartment, C0 is the initial solute concentration in donor compartment, and A is the surface area. […] The drug in post column eluant was derivatized with Dinitrofluorobenzene (DNFB) and monitored at 360 nm. The run time was 30 minutes.

[3] = In vitro PAR transport across harvested intestinal segments, EasyMount Ussing System: ileum; assay type: in vitro ADME; details: rat, 5 mg/ml (~25 mg) paromomycin in mucosal chamber, tissue area 0.5 sq cm
Experimental: as §1, §2, §3, §4, §5

[4] = In vitro PAR transport across harvested intestinal segments, EasyMount Ussing System: colon; assay type: in vitro ADME; details: rat, 5 mg/ml (~25 mg) paromomycin in mucosal chamber, tissue area 0.5 sq cm
Experimental: as §1, §2, §3, §4, §5

[5] = Paromomycin in vivo absorption (pharmacokinetic) studies in rats; design: species or system Male rats (Sprague Dawley)
Experimental: Paromomycin was extracted from plasma samples (100 μl volume) with phenylboronic acid solid phase extraction columns, and the bound drug was eluted from the columns with 1% (v/v) formic acid in water. The acid eluates were evaporated under vacuum, and then the dry residues were reconstituted in 100 μl of 1 mM heptafluorobutyric acid (HFBA) in water.

[6] = historically considered (ref. 6); cited from earlier work
[7] = male rats, i.v. 100 mg/kg, Group #1, individual rats, 100 mg/kg
[8] = male, Sprague Dawley, rat, plasma, iv, 100 mg/kg, i.v. 100 mg/kg, Group #1, Mean of 3 rats

NC[C@@H]1O[C@H](O[C@H]2[C@@H](O)[C@H](O[C@@H]3[C@@H](O)[C@H](N)C[C@H](N)[C@H]3O[C@H]3O[C@H](CO)[C@@H](O)[C@H](O)[C@H]3N)O[C@@H]2CO)[C@H](N)[C@@H](O)[C@@H]1O [PAR, Paromomycin sulfate]
Papp at […], 5 mg/ml [1]: 1.94 ×10⁻⁶ cm/s
Papp at 15 mg/ml ([2]; jejunum M-to-S, Sodium Decanoate in mucosal 0.2 mg/ml (equilibrated 20 min before drug)): 1.48 ×10⁻⁶ cm/s
Papp at 15 mg/ml ([2]; jejunum M-to-S, Sodium Decanoate in mucosal 0.5 mg/ml (equilibrated)): 2.22 ×10⁻⁶ cm/s
Papp at 15 mg/ml ([2]; jejunum M-to-S, Sodium Decanoate in mucosal 1 mg/ml (equilibrated)): 4.4 ×10⁻⁶ cm/s
Papp at 15 mg/ml ([2]; jejunum M-to-S, Sodium Decanoate in mucosal 1 mg/ml (not equilibrated)): 3.83 ×10⁻⁶ cm/s
Papp at 15 mg/ml ([2]; jejunum M-to-S, Sodium Decanoate in serosal 0.2 mg/ml (not equilibrated)): 3.86 ×10⁻⁶ cm/s
Papp at 15 mg/ml ([2]; jejunum M-to-S, Sodium Decanoate in serosal 0.5 mg/ml (not equilibrated)): 3.54 ×10⁻⁶ cm/s
Papp at 15 mg/ml ([2]; jejunum M-to-S, Sodium Decanoate in serosal 1.0 mg/ml (not equilibrated)): 7.2 ×10⁻⁶ cm/s
Papp at 15 mg/ml ([2]; jejunum M-to-S, no Quinidine, no Sodium Decanoate, tissue area 0.5 sq cm): 2.63 ×10⁻⁶ cm/s
Papp at 15 mg/ml ([2]; jejunum S-to-M, no Quinidine): 2.75 ×10⁻⁶ cm/s
Papp at […], 5 mg/ml ([2]; jejunum, 5 mg/ml (~25 mg) paromomycin in mucosal chamber, tissue area 0.5 sq cm): 3.93 ×10⁻⁶ cm/s
Papp at 15 mg/ml ([2]; with quinidine 0.05 mg/ml in mucosal chamber, jejunum M-to-S, 0.05 mg/ml Quinidine in mucosal): 4.37 ×10⁻⁶ cm/s
Papp at 15 mg/ml ([2]; with quinidine 0.05 mg/ml in mucosal chamber, jejunum S-to-M, 0.05 mg/ml Quinidine in mucosal): 1.85 ×10⁻⁶ cm/s
Papp at […], 5 mg/ml [3]: 2.22 ×10⁻⁶ cm/s
Papp at […], 5 mg/ml [4]: 2.07 ×10⁻⁶ cm/s
t1/2 ([5]; male rats, i.v. 100 mg/kg in sterile saline, Group #1, individual rats, 100 mg/kg): 2.70 h and 2.86 h
V ([5]; male rats, i.v. 100 mg/kg, Group #1, Mean of 3 rats): 5.40 L/kg
AUC [5, 7]: 55465 ng·h/mL and 85847 ng·h/mL
Cl [5, 7]: 30 mL/min/kg and 19.3 mL/min/kg
Cmax [5, 7]: 95.651 µg/mL and 101.318 µg/mL
V [5, 7]: 4.39 L/kg and 7.01 L/kg and 4.80 L/kg
half-life ([5]; male, Sprague Dawley, rat, plasma, iv, 100 mg/kg, i.v. 100 mg/kg in sterile saline, Group #1, individual rats): 2.85 h
clearance [5, 8]: 22.3 mL/min/kg
half-life [5, 8]: 2.8 h
AUC ([5]; male, Sprague Dawley, rat, plasma, iv, 100 mg/kg, i.v. 100 mg/kg, Group #1, Mean of 3 rats, read-out: AUC): 78300 ng·h/mL
Cmax ([5]; male, Sprague Dawley, rat, plasma, iv, 100 mg/kg, i.v. 100 mg/kg, Group #1, Mean of 3 rats, read-out: Cmax): 124 µg/mL
clearance ([5]; male, Sprague Dawley, rat, plasma, iv, 100 mg/kg, i.v. 100 mg/kg, Group #1, individual rats): 17.8 mL/min/kg
AUC ([5]; male, Sprague Dawley, rat, plasma, iv, 100 mg/kg, i.v. 100 mg/kg, Group #1, individual rats, read-out: AUC): 93500 ng·h/mL
Cmax ([5]; male, Sprague Dawley, rat, plasma, iv, 100 mg/kg, i.v. 100 mg/kg, Group #1, individual rats, read-out: Cmax): 174 µg/mL
oral bioavailability [6]: close to zero
